Reference: ChEMBL document CHEMBL4334519, “Anti-inflammatory and α-Glucosidase Inhibitory Activities of Labdane and Norlabdane Diterpenoids from the Rhizomes of Amomum villosum” (J Nat Prod, 2019)
Activity calls are given as the source filed them. The calls are words filed in the database; no cut-off is given here.

Columns and labels:
RAW264.7 = assay: Antiinflammatory activity against mouse RAW264.7 cells assessed as inhibition of LPS-induced nitric oxide production measured after 24 hrs; format: functional, cell-based; conditions: RAW264.7, 24 h
[1] = Inhibition of yeast alpha-glucosidase using p-nitrophenyl-alpha-D-glucopyranoside as substrate preincubated for 30 mins followed by substrate addition and measured after 30 mins by microplate reader analysis; design: species or system Saccharomyces cerevisiae
Saccharomyces cerevisiae [2] = assay: Inhibition of yeast alpha-glucosidase at 50 uM using p-nitrophenyl-alpha-D-glucopyranoside as substrate preincubated for 30 mins followed by substrate addition and measured after 30 mins by microplate reader analysis
[3] = Mixed-type inhibition of yeast alpha-glucosidase assessed as inhibition constant using p-NPG as substrate measured up to 180 mins by Lineweaver-Burk plot analysis; design: species or system Saccharomyces cerevisiae
Saccharomyces cerevisiae [4] = assay: Mixed-type inhibition of yeast alpha-glucosidase assessed as reduction in Km up to 20 uM using p-NPG as substrate measured up to 180 mins by Lineweaver-Burk plot analysis
Saccharomyces cerevisiae [5] = assay: Mixed-type inhibition of yeast alpha-glucosidase assessed as reduction in Vmax up to 20 uM using p-NPG as substrate measured up to 180 mins by Lineweaver-Burk plot analysis

Row | SMILES | IC50 (RAW264.7) | IC50 [1] | inhibition (Saccharomyces cerevisiae [2]) | Ki [3] | inhibition (Saccharomyces cerevisiae [4]) | inhibition (Saccharomyces cerevisiae [5])
1 | CNC(=N)NCCC[C@H](N)C(=O)O [TILARGININE] | 27.2 µM | – | – | – | – | –
2 | C=C1CC[C@H]2C(C)(C)CCC[C@]2(C)[C@H]1CCC1=CC(=O)OC1 | 18.8 µM | 14.8 µM | 89% | – | – | –
3 | OC[C@H]1NC[C@H](O)[C@@H](O)[C@@H]1O [DUVOGLUSTAT] | – | 115 µM | 36.8% | – | – | –
4 | CC1(C)CCC[C@]2(C)CC3=C(C[C@@H]12)C(=O)CC3 | 43.1 µM | > 50 µM | 12.4% | – | – | –
5 | C=C1CC[C@H]2C(C)(C)CCC[C@]2(C)[C@H]1C/C=C1\CC(OCC)OC1=O (some centres undefined) | 31.2 µM | 13.8 µM | 89.3% | – | – | –
6 | C=C1CC[C@H]2C(C)(C)CCC[C@]2(C)[C@H]1C/C=C1\CC(OC)OC1=O (some centres undefined) | 24.6 µM | 15.8 µM | 87.8% | – | – | –
7 | O=c1c(-c2ccc(O)cc2)coc2cc(O)cc(O)c12 [GENISTEIN] | – | 17.6 µM | 70% | – | – | –

Second part, the compound after the results:

Row | IC50 (RAW264.7) | IC50 [1] | inhibition (Saccharomyces cerevisiae [2]) | Ki [3] | inhibition (Saccharomyces cerevisiae [4]) | inhibition (Saccharomyces cerevisiae [5]) | SMILES
8 | 28.7 µM | > 50 µM | 27.1% | – | – | – | C=C1CC[C@H]2C(C)(C)CCC[C@]2(C)[C@H]1C/C=C(/C=O)CO
9 | 2.4 µM | 10 µM | 95.7% | 9.5 µM | Active | Active | C=C1CC[C@H]2C(C)(C)CCC[C@]2(C)[C@H]1/C=C/C1=CC(=O)O[C@H]1O
10 | 25.8 µM | 17.5 µM | 87.4% | – | – | – | C=C1CC[C@H]2C(C)(C)CCC[C@]2(C)[C@H]1CCC1=CC(O)OC1=O (some centres undefined) [CORONARIN C]
11 | 11 µM | 21.1 µM | 90.3% | – | – | – | C=C1CC[C@H]2C(C)(C)CCC[C@]2(C)[C@H]1C/C=C1\CC(=O)OC1=O
12 | 23.7 µM | > 50 µM | 33.2% | – | – | – | C=C1CC[C@H]2C(C)(C)CCC[C@]2(C)[C@H]1/C=C/C(=O)O
13 | > 50 µM | > 50 µM | 38.7% | – | – | – | C=C1CC[C@H]2C(C)(C)CCC[C@]2(C)[C@H]1C/C=C(\CC(=O)OCC)C(=O)O
14 | 30.8 µM | 17.1 µM | 89.1% | – | – | – | C=C1CC[C@H]2C(C)(C)CCC[C@]2(C)[C@H]1C/C=C1\CCOC1=O
15 | > 50 µM | > 50 µM | 36.9% | – | – | – | C=C1CC[C@H]2C(C)(C)CCC[C@]2(C)[C@H]1C/C=C(/C=O)CCO
